What was measured:
Type in all cases: cell-based
[1] = biological target: T1, PPAR-α (Homo sapiens, UniProt Q07869); assay: transactivation test of PPAR-type receptors (luciferase reporter, cotransfected HeLa cells), PPAR-α; conditions: HeLa cells cotransfected with PPAR-α expression vector and PPRE-luciferase reporter, 24 hours, n.a. = not active; for AC50: concentration giving 50% of the activity of the reference molecule; for α Ymax %: relative to Reference 1
T1 construct: expressed in transfected cells; host or cells: HeLa cells
T1 sequence (Q07869 1-468): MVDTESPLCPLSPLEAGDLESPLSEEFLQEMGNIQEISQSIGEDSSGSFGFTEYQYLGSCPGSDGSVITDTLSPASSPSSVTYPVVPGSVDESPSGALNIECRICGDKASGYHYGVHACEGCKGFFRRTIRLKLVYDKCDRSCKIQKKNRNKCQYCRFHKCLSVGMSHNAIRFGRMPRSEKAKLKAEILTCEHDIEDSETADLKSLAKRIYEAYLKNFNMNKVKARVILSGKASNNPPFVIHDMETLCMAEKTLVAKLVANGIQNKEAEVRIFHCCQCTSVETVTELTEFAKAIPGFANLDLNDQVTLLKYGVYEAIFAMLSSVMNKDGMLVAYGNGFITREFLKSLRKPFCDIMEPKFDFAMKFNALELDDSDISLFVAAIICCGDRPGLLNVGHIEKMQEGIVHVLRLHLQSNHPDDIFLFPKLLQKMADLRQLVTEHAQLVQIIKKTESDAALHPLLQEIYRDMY
Method: (§1) This activity is determined with the aid of a reporter enzyme (luciferase) for the activation due to the compound via one of the PPAR receptors, and more particularly of the PPAR-α type.
(§2) The biological tests carried out corresponded to those described in the application. […] Thus, the activating power via PPAR-α, PPAR-γ or PPAR-δ of molecules was evaluated with a transactivation test in which HeLa cells were cotransfected with an expression vector encoding these receptors and a reporter plasmid containing a PPRE response element cloned upstream of a portion of a promoter of the SV40 virus and of the luciferase gene. The cotransfected cells were treated for 24 hours with the molecules to be tested and the activity of the luciferase was determined by luminescence.

[2] = biological target: T2, PPAR-δ (Homo sapiens, UniProt Q03181); assay: transactivation test of PPAR-type receptors (luciferase reporter, cotransfected HeLa cells), PPAR-δ; conditions: HeLa cells cotransfected with PPAR-δ expression vector and PPRE-luciferase reporter, 24 hours, n.a. = not active; for AC50: concentration giving 50% of the activity of the reference molecule; for δ Ymax %: relative to Reference 2
T2 construct: expressed in transfected cells; host or cells: HeLa cells
T2 sequence (Q03181 1-441): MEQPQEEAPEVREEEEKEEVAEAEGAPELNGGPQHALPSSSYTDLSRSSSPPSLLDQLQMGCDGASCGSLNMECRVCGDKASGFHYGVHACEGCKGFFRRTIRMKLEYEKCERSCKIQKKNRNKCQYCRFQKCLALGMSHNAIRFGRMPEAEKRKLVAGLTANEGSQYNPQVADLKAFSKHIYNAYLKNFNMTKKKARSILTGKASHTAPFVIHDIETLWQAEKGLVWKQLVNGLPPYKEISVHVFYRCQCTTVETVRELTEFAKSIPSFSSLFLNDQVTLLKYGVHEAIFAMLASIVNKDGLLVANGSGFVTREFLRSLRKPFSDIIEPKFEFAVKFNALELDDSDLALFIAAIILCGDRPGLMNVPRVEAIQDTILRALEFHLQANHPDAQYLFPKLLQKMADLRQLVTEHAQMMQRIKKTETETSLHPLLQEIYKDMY
Method: as §1, §2

[3] = biological target: T3, PPAR-γ (Homo sapiens, UniProt P37231); assay: transactivation test of PPAR-type receptors (luciferase reporter, cotransfected HeLa cells), PPAR-γ; conditions: HeLa cells cotransfected with PPAR-γ expression vector and PPRE-luciferase reporter, 24 hours, n.a. = not active; for AC50: concentration giving 50% of the activity of the reference molecule; for γ Ymax %: relative to Reference 2
T3 construct: expressed in transfected cells; host or cells: HeLa cells
T3 sequence (P37231 1-505): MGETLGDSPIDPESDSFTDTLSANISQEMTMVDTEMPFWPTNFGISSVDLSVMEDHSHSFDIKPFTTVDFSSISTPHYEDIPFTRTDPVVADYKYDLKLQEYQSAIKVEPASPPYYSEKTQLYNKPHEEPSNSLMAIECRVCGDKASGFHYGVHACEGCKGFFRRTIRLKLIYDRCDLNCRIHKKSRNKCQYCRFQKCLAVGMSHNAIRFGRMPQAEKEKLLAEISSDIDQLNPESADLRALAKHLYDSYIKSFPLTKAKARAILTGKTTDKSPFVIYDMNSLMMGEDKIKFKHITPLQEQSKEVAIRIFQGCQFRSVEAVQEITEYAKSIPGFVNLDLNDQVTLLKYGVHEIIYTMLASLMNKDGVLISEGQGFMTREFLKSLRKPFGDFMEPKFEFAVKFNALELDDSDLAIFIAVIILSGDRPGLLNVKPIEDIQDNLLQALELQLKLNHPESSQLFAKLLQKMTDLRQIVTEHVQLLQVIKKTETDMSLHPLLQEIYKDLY
Method: as §1, §2

AC50 [1] [µM] | α Ymax % [1] [%] | AC50 [2] [µM] | δ Ymax % [2] [%] | AC50 [3] [µM] | γ Ymax % [3] [%] | Structure (SMILES)
2.9 | 91 |  |  |  |  | CCCCCCCCSCC#CCSCC(=O)O [Example 8, 3,8-Dithia-5-hexadecynoic Acid]
1.5 | 142 |  |  |  |  | CCCCCCCCCCC#CCSCC(=O)O [Example 10, 3-Thia-5-hexadecynoic Acid]
 | 100 |  |  |  |  | Cc1cccc(Nc2cc(Cl)nc(SCC(=O)O)n2)c1C [Reference 1, [4-chloro-6-(2,3-dimethylphenylamino)pyrimidin-2-ylsulfanyl]acetic acid]

Further lines, the compound ahead of its results:

Structure (SMILES) | AC50 [1] [µM] | α Ymax % [1] [%] | AC50 [2] [µM] | δ Ymax % [2] [%] | AC50 [3] [µM] | γ Ymax % [3] [%]
CCCCCCCCC#CCC#CCC#CCSCC(=O)O [Comparative Example 2, 3-thia-5,8,11-eicosatriynoic acid] | 5 | 112 | 11 | 74 | 4 | 58
CCCCCCCCC#CCC#CCSCC(=O)O [Example 14, 3-Thia-5,8-heptadecadiynoic Acid] | 1 | 116 |  |  |  | 
CCCCCC#CCC#CCC#CCSCC(=O)O [Example 21, 3-Thia-5,8,11-heptadecatriynoic Acid] | 3 | 138 |  |  |  | 
CCCCCC#CCC#CCC#CCC#CCSCC(=O)O [Comparative Example 1, 3-thia-5,8,11,14-eicosatetraynoic acid] | 4 | 128 | 7 | 125 | 3 | 83

From patent US6511670B1, “(poly)thiaalkynoic compounds and pharmaceutical/cosmetic compositions comprised thereof” (Societe L'Oreal S.A., priority 1999, dated 2003)
